The test system of test [1] is HBB locus in CD34-expressing LT-HSPCs. The experiment in a line: HDR insertion of AAV GFP donor at HBB locus (GFP fluorescence). The format is cell-based, human. Particulars: for HDR efficiency: 0.75 g mRNA encoding i53, 5 μM Nu7441, DM control mRNA, FIG. 6C. How it is done: Frozen CD34-expressing LT-HSPCs derived from plerixafor (i.e., Mozibil®)+GCSF-dual mobilized peripheral blood obtained from healthy human donors were purchased from a commercial vendor. LT-HSPCs were maintained in culture media comprised of the reagents shown in Table 4 and were incubated at 37° C., 5% carbon dioxide, 4% oxygen. […] 2×10^5 cells were edited with 3 g Cas9 and 3 g gRNA. The target gene sequence (including target sequence with PAM), R02 spacer sequence, and R02 sgRNA sequence are identified in Table 3.
The cells were transfected with a dsDNA homology donor encoding GFP under a SFFV promoter (SEQ ID NO: 60) that was delivered by AAV (SEQ ID NO: 56). […] The HDR efficiency was determined by measuring the level of GFP fluorescence in the cells following electroporation. To determine the effect of 53BP1 inhibition on HDR efficiency, the 53BP1 inhibitor i53 was introduced as an mRNA-encoded protein to the cells during electroporation with Cas9/gRNA RNP and AAV DNA that serves as a donor for homology directed repair.
The effect of 53BP1 inhibition on HDR efficiency was compared to other mRNA-encoded proteins that inhibit the NHEJ pathway. These included the proteins CYREN1 and CYREN2 that inhibit Ku70/80, a heterodimer that binds DNA blunt ends to prevent processing of 3′ single-stranded DNA tails necessary for HDR repair. Cells were electroporated with RNP, an AAV-GFP homology donor and mRNA encoding either i53 (mRNA ORF shown in SEQ ID NO: 69), CYREN1, or CYREN2.
The effect of treatment with i53 and Nu7441 was compared for improving efficiency of HDR repair of the HBB locus. Cells were treated with different doses of Nu7441 or with mRNA encoding i53 (ORF shown by SEQ ID NO: 69).

The test system is the same in test [2]. The experiment in a line: HDR incorporation of sickle (E7V) edit at HBB locus in vitro, NGS assay. The format is cell-based, human. Particulars: for incorporation of the E7V gene edit: 1 μg mRNA encoding i53. The text has this:
The cells were electroporated with 1 g mRNA encoding i53.

In test [3] the test system is cKit mice. Nature of the test: Engraftment (percent chimerism) of edited human LT-HSPCs in irradiated mice. It is filed as in vivo. Particulars: for chimerism in bone marrow: FIG. 24B. How it is done: The cells were administered by intravenous injection to cKit mice at 2 days following electroporation. Recipient mice were treated with sublethal irradiation (100 cGy) at 1 day prior to administration of LT-HSPCs to eliminate hematopoietic cells in the bone marrow and enable engraftment of the donor cells. Animals were evaluated for presence of human hematopoietic cells in peripheral blood at 8 and 16 weeks following LT-HSPC administration. The bone marrow was also evaluated for engraftment and maintenance of the HBB gene-edit at 16 weeks following LT-HSPC administration.
(§1) Presence of human hematopoietic cells was measured by flow cytometry in mouse blood or bone marrow samples. Cells were gated on singlet, live cells. Mouse and human CD45-expressing hematopoietic cells were distinguished by antibodies targeting mouse or human CD45. Engraftment was measured as percent chimerism which was defined as the quantity of human CD45 positive cells divided by the total number of CD45 positive cells (e.g., human and mouse CD45 expressing cells combined). The lineage of human CD45 positive cells was determined using markers for CD19 (e.g., B cells), CD3 (e.g., T cells), CD33 (e.g., myeloid cells), and CD34 (hematopoietic stem/progenitor cells (HSPCs)).
Human LT-HSPCs were administered to mice following electroporation with Cas9/gRNA and AAV encoding a sickle cell mutation (E7V) as shown in FIG. 21. LT-HSPCs were mobilized from healthy donors using plerixafor. LT-HSPCs were gene-edited following 2 days in culture. […] 1×10^6 cells were edited with 20 g Cas9 and 20 g gRNA.
A dose of 0.5×10^6 cells was administered by intravenous injection to cKit mice at 2 days following electroporation. Recipient mice were treated with sublethal irradiation (100 cGy) at 1 day prior to administration of LT-HSPCs to eliminate hematopoietic cells in the bone marrow and enable engraftment of the donor cells. Animals were evaluated for presence of human hematopoietic cells in peripheral blood at 8 and 16 weeks following LT-HSPC administration. The bone marrow was also evaluated for engraftment and maintenance of the HBB gene-edit at 16 weeks following LT-HSPC administration.

Test [4] concerns cKit mice. Nature of the test: Lineage analysis of engrafted human CD45-expressing cells in mouse bone marrow. It is filed as in vivo. How it is done: as §1
Shown in FIGS. 18A-18B is lineage analysis of engrafted CD45-expressing human cells in mouse bone marrow samples collected at 16 weeks post administration of LT-HSPCs. The lineage of CD45-expressing human leukocytes was evaluated for unedited LT-HSPCs administered at a dose of 0.01×10^6, 0.05×10^6, 0.1×10^6, or 0.25×10^6 cells (FIG. 18A). The lineage of CD45-expressing human leukocytes was also evaluated for LT-HSPCs edited with AAV+RNP either in the presence or absence of i53 (FIG. 18B).
Shown in FIG. 25 is lineage analysis of engrafted CD45-expressing human cells in mouse bone marrow samples collected at 16 weeks post administration of LT-HSPCs. […]

For the next test, the system named is HBB locus. Nature of the test: HDR (E7V) editing in mouse bone marrow 16 weeks post-administration, NGS. The format is in vivo, mice. Particulars: for levels of gene-editing in the HBB locus in bone marrow: AAV.304, FIG. 26B. How it is done:
Maintenance of gene-editing was evaluated in mouse bone marrow collected at 16 weeks post-administration of LT-HSPCs. Incorporation of a sickle mutation (E7V) in the HBB locus was evaluated in DNA isolated from mouse bone marrow samples using the next generation sequencing assay described in Example 4. Shown in FIG. 19 is a comparison of HDR efficiency for LT-HSPCs edited either with or without i53. LT-HSPCs were electroporated with Cas9/gRNA and treated with AAV. […] LT-HSPCs edited in the presence of i53 had 1.8-fold higher HDR frequency in the bone marrow compared to cells edited with AAV+RNP alone.
Maintenance of gene-editing was evaluated in mouse bone marrow collected at 16 weeks post-administration of LT-HSPCs. Incorporation of a sickle mutation (E7V) in the HBB locus was evaluated in DNA isolated from mouse bone marrow samples using the next generation sequencing assay described in Example 4. […] LT-HSPCs were electroporated with Cas9/gRNA and treated with AAV prior to electroporation or following electroporation. Incorporation of the gene-edit in bone marrow samples was similar for LT-HSPCs edited with RNP and AAV given either pre-EP or post-EP. Additionally, incorporation of the gene edit in the HBB locus by HDR was compared for LT-HSPCs edited in the presence of i53 or Nu7441 (FIG. 26B).

“Also recorded” adds a separate entry of the source.

`O=c1cc(N2CCOCC2)oc2c(-c3cccc4c3sc3ccccc34)cccc12` [Nu7441]: in test [1], the HDR efficiency result is listed as “comparable increase in HDR efficiency”. For the same compound, the “HDR efficiency over RNP+AAV alone” value in test [2] (5 μM Nu7441, pre-EP AAV.304, FIG. 22B) is “no improvement of HDR efficiency”. Besides, in the test with cKit mice [3] (8 and 16 weeks, 5 μM Nu7441, FIG. 23B), the “chimerism in blood, fold increase over RNP+AAV alone” value was 2.5 fold. Moreover, the “chimerism in bone marrow” value in the test on cKit mice [3] (16 weeks, AAV.304) is “higher than RNP+AAV alone”. For the same compound, in the test on cKit mice [3] (both 8 and 16 weeks, 5 μM Nu7441, AAV.304, FIG. 23B), the chimerism in blood result is listed as “approximately 25%”. Also, the “lineage of human leukocytes in bone marrow” value in the test on cKit mice [4] (16 weeks, compared to treatment with i53, FIG. 25) is “greater proportion of CD34-expressing cells and myeloid cells”. In the test with HBB locus, the “levels of gene-editing in the HBB locus in bone marrow” value was “comparable to AAV+RNP alone”.
Regarding “i53: polypeptide inhibitor of 53BP1 (SEQ ID NO: 70), delivered as mRNA (ORF SEQ ID NO: 69)”, the HDR efficiency result in test [1] is “comparable increase in HDR efficiency”. For the same compound, in test [1] (i53 mRNA 0.5, 1, 2 g (FIG. 6A) or 0.3 g, 1 g (FIG. 6B), CYREN1 or CYREN2 mRNA, any dose of XL413 (data not shown)), the “HDR efficiency vs RNP+AAV-only” value is listed as “improved HDR efficiency; also recorded: increased HDR efficiency”. For the same compound, the “HDR efficiency, fold increase over RNP+AAV-only” value in test [1] (mRNA encoding i53, AAV GFP donor 5,000 MOI, FIG. 6A) is recorded as “approximately 1.3 fold”. Moreover, the “incorporation of the E7V gene edit” value is reported as 58% in test [2] (pre-EP AAV.304, FIG. 22B) and 68% in test [2] (AAV.307 + Cas9/R02 RNP, FIG. 10). Besides, the “cells incorporating the sickle cell gene-edit” value in test [2] (LT-HSPCs mobilized by Mozobil alone, i53, FIG. 12B) was “approximately 70%”. Moreover, in test [2] (LT-HSPCs mobilized by Mozobil+GCSF, FIG. 12A), the “HDR efficiency, fold increase over RNP+AAV alone” value is reported as “approximately 1.5 fold”. The “incorporation of the sickle cell gene-edit by HDR” value in test [2] (LT-HSPCs mobilized by Mozobil+GCSF, i53, FIG. 12A) was “approximately 60%”. Further, the “percent chimerism in bone marrow” value with cKit mice [3] (16 weeks, 0.25×10^6 LT-HSPCs, AAV.307, FIG. 16) is listed as “no further decrease in chimerism”. Further, the “chimerism in bone marrow” value in the test on cKit mice [3] (16 weeks, AAV.304) is recorded as “comparable to RNP+AAV alone”. For the same compound, the “levels of chimerism in blood” value with cKit mice [3] (blood 8 and 16 weeks, 0.5×10^6 cells, AAV.304, FIG. 23B) is given as “comparable to RNP+AAV alone”. The “lineage distribution of engrafted cells” value with cKit mice [4] (bone marrow 16 weeks, edited vs un-edited LT-HSPCs, FIG. 18B) is “no gross changes in lineage distribution”. Moreover, the “levels of gene-editing in the HBB locus in bone marrow” value with HBB locus is reported as “substantially higher than AAV+RNP alone”. The “HDR frequency in bone marrow, fold higher than AAV+RNP alone” value with HBB locus (AAV.307, FIG. 19) was determined as 1.8 fold. Besides, in the test on HBB locus (AAV.307, i53, FIG. 19), the “incorporation of the gene edit by HDR in bone marrow” value is reported as 65%.

These data come from patent publication US12653860B2, “Compositions and methods for editing beta-globin for treatment of hemaglobinopathies” (Vertex Pharmaceuticals Incorporated, priority 2019, dated 2026).
